From patent US6596719B1 (Actelio Pharmaceuticals Ltd., priority 1999, dated 2003) come the findings set out here.

The target in experiment [1] is T1, human recombinant ETA receptors (Homo sapiens, UniProt P25101).
T1 construct: expressed in transfected cells; host or cells: CHO cells (microsomal membranes)
T1 sequence (P25101 21-427): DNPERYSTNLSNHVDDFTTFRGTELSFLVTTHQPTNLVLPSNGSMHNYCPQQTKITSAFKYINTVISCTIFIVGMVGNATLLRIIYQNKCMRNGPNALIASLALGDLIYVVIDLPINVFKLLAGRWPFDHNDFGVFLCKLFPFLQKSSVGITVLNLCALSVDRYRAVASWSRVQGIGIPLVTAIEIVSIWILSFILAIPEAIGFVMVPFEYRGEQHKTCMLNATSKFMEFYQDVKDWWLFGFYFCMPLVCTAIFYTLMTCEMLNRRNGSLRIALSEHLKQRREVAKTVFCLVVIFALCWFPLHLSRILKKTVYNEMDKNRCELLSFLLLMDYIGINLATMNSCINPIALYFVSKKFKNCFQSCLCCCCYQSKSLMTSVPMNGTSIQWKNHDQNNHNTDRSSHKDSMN
Nature of the experiment: Inhibition of endothelin binding to membranes from CHO cells carrying human ET receptors (ETA).

Experiment [2] deals with T2, human recombinant ETB receptors (Homo sapiens, UniProt P24530).
T2 construct: expressed in transfected cells; host or cells: CHO cells (microsomal membranes)
T2 sequence (P24530 27-442): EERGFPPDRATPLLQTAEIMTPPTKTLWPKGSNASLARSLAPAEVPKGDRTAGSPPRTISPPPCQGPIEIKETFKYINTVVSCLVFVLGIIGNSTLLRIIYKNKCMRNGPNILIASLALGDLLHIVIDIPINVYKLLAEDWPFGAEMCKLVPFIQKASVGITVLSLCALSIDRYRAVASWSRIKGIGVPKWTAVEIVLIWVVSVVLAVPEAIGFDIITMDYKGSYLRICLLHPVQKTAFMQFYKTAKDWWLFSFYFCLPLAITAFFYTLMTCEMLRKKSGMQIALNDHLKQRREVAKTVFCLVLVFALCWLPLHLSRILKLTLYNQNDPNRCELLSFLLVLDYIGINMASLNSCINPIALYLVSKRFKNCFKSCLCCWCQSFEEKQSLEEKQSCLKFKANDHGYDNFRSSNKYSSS
Nature of the experiment: Inhibition of endothelin binding to membranes from CHO cells carrying human ET receptors (ETB). As to the method:
1) Inhibition of Endothelin Binding to Membranes from CHO Cells Carrying Human ET Receptors:
For competition binding studies, membranes of CHO cells expressing human recombinant ETA or ETB receptors were used. Microsomal membranes from recombinant CHO cells were prepared and the binding assay made as previously described (Breu V., et al, FEBS Lett 1993; 334:210).
The assay was performed in 200 uL 50 mM Tris/HCl buffer, pH 7.4, including 25 mM MnCl2, 1 mM EDTA and 0.5% (w/v) BSA in polypropylene microtiter plates. […]. […] After two h, the membranes were filtered on, filterplates containing GF/C filters (Unifilterplates from Canberra Packard S. A. Zürich, Switzerland). To each well, 50 uL of scintillation cocktail was added (MicroScint 20, Canberra Packard S. A. Zürich, Switzerland) and the filter plates counted in a microplate counter (TopCount, Canberra Packard S. A. Zürich, Switzerland).
All the test compounds were dissolved, diluted and added in DMSO. […] […].

Experiment [3] deals with T3, ETB receptors (Rattus norvegicus, UniProt P21451).
T3 sequence (P21451 27-442): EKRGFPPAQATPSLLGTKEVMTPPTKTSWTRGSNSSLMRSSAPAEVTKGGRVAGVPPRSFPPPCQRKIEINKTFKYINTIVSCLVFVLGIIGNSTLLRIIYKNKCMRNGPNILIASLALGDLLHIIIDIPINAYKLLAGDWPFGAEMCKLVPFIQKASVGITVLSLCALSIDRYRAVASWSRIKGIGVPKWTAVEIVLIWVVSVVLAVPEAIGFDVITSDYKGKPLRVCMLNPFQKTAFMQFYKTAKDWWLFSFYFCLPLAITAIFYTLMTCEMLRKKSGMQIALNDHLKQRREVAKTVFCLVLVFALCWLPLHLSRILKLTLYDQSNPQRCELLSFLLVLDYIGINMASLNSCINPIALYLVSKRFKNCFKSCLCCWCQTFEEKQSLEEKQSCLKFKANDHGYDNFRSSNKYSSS
Nature of the experiment: Inhibition of sarafotoxin S6c-induced contractions on isolated rat tracheal rings. The following applies: for pA2 value ETB: rat tracheal rings, contraction induced by sarafotoxin S6c, 10 min incubation.

[4] abbreviates: membranes of CHO cells expressing human recombinant ETA receptors, 8 pM [125I]ET-1, 2 h at 20° C.
Setting [5] is: membranes of CHO cells expressing human recombinant ETB receptors, 8 pM [125I]ET-1, 2 h at 20° C.

Like-named read-outs stand apart in the source and are kept apart here.

With `COc1ccccc1Oc1c(NS(=O)(=O)c2ccc(C(C)C)cn2)nc(-c2cc(OC)c(OC)c(OC)c2)nc1OCCNS(=O)(=O)c1ccc(C)cc1` [Example 11, 5-i.-propyl-N-[6-(ethoxy-2-(4-methylbenzenesulfonamido))-5-(o-methoxyphenoxy)-2-(3,4,5-trimethoxyphenyl)-4-pyrimidinyl]pyridine-2-sulfonamide], the IC50 (commonly the midpoint of a concentration-inhibition curve) was determined as 5110 nM in experiment [1] (setting [4]) and 4.3 nM in experiment [2]. Moreover, the “pA2 value ETB” value in experiment [3] came out at 7.46.

Regarding `COc1ccccc1Oc1c(NS(=O)(=O)c2ccc(C(C)C)cn2)nc(-c2cc(OC)c(OC)c(OC)c2)nc1OCCNS(=O)(=O)c1cccs1` [Example 15, 5-i.-propyl-N-[6-(ethoxy-2-thiophenesulfonamido)-5-(o-methoxyphenoxy)-2-(3,4,5-trimethoxyphenyl)-4-pyrimidinyl]pyridine-2-sulfonamide], the results for the IC50 in experiment [1] (setting [4]) and in experiment [2] were 1320 nM and 7.3 nM, respectively. This compound had a Kb in experiment [3] of 40.7 nM.

As to `COc1ccccc1Oc1c(NS(=O)(=O)c2ccc(C(C)C)cn2)nc(N2CCOCC2)nc1OCCNS(=O)(=O)c1ccc(C)cc1` [Example 60, 5-isopropyl-N-[6-(2-(4-methylbenzenesulfonylamino)-ethoxy)-5-(o-methoxyphenoxy)-2-(N-morpholino)-4-pyrimidinyl]-2-pyridine sulfonamide], the IC50 in experiment [1] was 1440 nM; in experiment [2] it was 16 nM. The “pA2 value ETB” value in experiment [3] is reported as 7.3.

Turning to `COc1ccccc1Oc1c(NS(=O)(=O)c2ccc(C(C)(C)C)cc2)nc(C)nc1OCCNS(=O)(=O)c1cccs1` [Example 62, 4-tert.-butyl-N-[6-(2-(2-thiophenesulfonylamino)-ethoxy)-5-(o-methoxyphenoxy)-2-methyl-4-pyrimidinyl]-benzene sulfonamide], the results for the IC50 in experiment [1] and in experiment [2] were 443 nM and 163 nM, respectively.

For `COc1ccccc1Oc1c(NS(=O)(=O)c2ccc(C(C)C)cn2)nc(-c2ncccn2)nc1OCCNS(=O)(=O)c1cccs1` [Example 68, 5-isopropyl-N-[6-(2-(2-thiophenesulfonylamino)-ethoxy)-5-(o-methoxyphenoxy)-2-(2-pyrimidinyl)-4-pyrimidinyl]-2-pyridine sulfonamide], the concentration for half-maximal inhibition (IC50) in experiment [1] was 477 nM; in experiment [2], 169 nM.

For `COc1ccccc1Oc1c(NS(=O)(=O)c2ccc(C(C)C)cn2)nc(-c2ccncc2)nc1OCCNS(=O)(=O)c1cccs1` [Example 71], the results for the half-maximal inhibitory concentration (IC50) in experiment [1] and in experiment [2] were 508 nM and 231 nM, respectively.

Take `CCS(=O)(=O)NCCOc1nc(-c2ccncc2)nc(NS(=O)(=O)c2ccc(C(C)C)cn2)c1Oc1ccccc1OC` [Example 73]: the IC50 in experiment [1] came to 233 nM; in experiment [2] it was 542 nM.

On to `COc1ccccc1Oc1c(NS(=O)(=O)c2ccc(C(C)C)cn2)nc(-c2ccncc2)nc1OCCNS(=O)(=O)C(F)(F)F` [Example 74], for which the values for the IC50 in experiment [1] and in experiment [2] were 531 nM and 934 nM, respectively.

As to `CCS(=O)(=O)NCCOc1nc(-c2ccncc2)nc(NS(=O)(=O)c2ccc(C)cn2)c1Oc1ccccc1OC` [Example 77, 5-methyl-N-[6-(2-(ethanesulfonylamino)-ethoxy)-5-(o-methoxyphenoxy)-2-(4-pyridyl)-4-pyrimidinyl]-2-pyridine sulfonamide], the values for the IC50 in experiment [1] (setting [4]) and in experiment [2] (setting [5]) were 185 nM and 5400 nM, respectively.

For `COc1ccccc1Oc1c(NS(=O)(=O)c2ccc(C)cn2)nc(-c2ccncc2)nc1OCCNS(C)(=O)=O` [Example 78, 5-methyl-N-[6-(2-(methanesulfonylamino)-ethoxy)-5-(o-methoxyphenoxy)-2-(4-pyridyl)-4-pyrimidinyl]-2-pyridine sulfonamide], the concentration for half-maximal inhibition (IC50) is 627 nM in experiment [1] and 5460 nM in experiment [2].

Regarding `CCS(=O)(=O)NCCCOc1nc(C2CC2)nc(NS(=O)(=O)c2ccc(C(C)(C)C)cc2)c1Oc1ccccc1OC` [Example 79], the figures for the IC50 in experiment [1] and in experiment [2] were 37 nM and > 10000 nM, respectively.

As to `CCS(=O)(=O)NCCOc1nc(N2CCOCC2)nc(NS(=O)(=O)c2ccc(C(C)(C)C)cc2)c1Oc1ccccc1OC` [Example 81, 4-tert.-butyl-N-[6-(2-ethanesulfonylamino-ethoxy)-2-(N-morpholino)-5-(o-methoxyphenoxy)-pyrimidin-4-yl]-benzenesulfonamide], the IC50 in experiment [1] stood at 104 nM; in experiment [2], 1240 nM.

Consider `CCS(=O)(=O)NCCOc1nc(N2CCN(C)CC2)nc(NS(=O)(=O)c2ccc(C(C)(C)C)cc2)c1Oc1ccccc1OC` [Example 82, 4-tert.-butyl-N-[6-(2-ethanesulfonylamino-ethoxy)-2-(N-(N′-methyl)-piperazinyl)-5-(o-methoxyphenoxy)-pyrimidin-4-yl]-benzene-sulfonamide], for which the IC50 in experiment [1] was determined as 311 nM; in experiment [2], 3510 nM.

As for `CCS(=O)(=O)NCCCOc1nc(C2CC2)nc(NS(=O)(=O)c2ccc(C(C)C)cn2)c1Oc1ccccc1OC` [Example 91, 5-i.-propyl-N-[6-(3-(ethanesulfonylamino)-propoxy)-5-(o-methoxyphenoxy)-2-cyclopropyl-4-pyrimidinyl]-pyridine-2-sulfonamide], the IC50 turned out to be 45.5 nM in experiment [1] (setting [4]) and 103 nM in experiment [2] (setting [5]).

As to `CCCS(=O)(=O)NCCCOc1nc(C2CC2)nc(NS(=O)(=O)c2ccc(C(C)C)cn2)c1Oc1ccccc1OC` [Example 92, 5-i.-propyl-N-[6-(3-(propanesulfonylamino)-propoxy)-5-(o-methoxyphenoxy)-2-cyclopropyl-4-pyrimidinyl]-pyridine-2-sulfonamide], the IC50 is 82.1 nM in experiment [1] (setting [4]) and 15 nM in experiment [2] (setting [5]).

On to `COc1ccccc1Oc1c(NS(=O)(=O)c2ccc(C(C)C)cn2)nc(C2CC2)nc1OCCCNS(=O)(=O)c1cccs1` [Example 93, 5-i.-propyl-N-[6-(3-(2-thiophenesulfonylamino)-propoxy)-5-(o-methoxyphenoxy)-2-cyclopropyl-4-pyrimidinyl]-pyridine-2-sulfonamide], for which the IC50 in experiment [1] (setting [4]) amounted to 22.2 nM; in experiment [2], 3.86 nM.

Regarding `COc1ccccc1Oc1c(NS(=O)(=O)c2ccc(C(C)C)cn2)nc(C2CC2)nc1OCCCNS(=O)(=O)c1ccc(C)cc1` [Example 94, 5-i.-propyl-N-[6-(3-(p-toluenesulfonylamino)-propoxy)-5-(o-methoxyphenoxy)-2-cyclopropyl-4-pyrimidinyl]-pyridine-2-sulfonamide], the figures for the IC50 in experiment [1] (setting [4]) and in experiment [2] were 77.3 nM and 18.6 nM, respectively.

As to “p-methyl-N-[6-(ethoxy-2-benzenesulfonamido)-5-(o-methoxyphenoxy)-2-(4-pyridyl)-4-pyrimidinyl]benzene-sulfonamide [Example 2]”, the results for the IC50 in experiment [1] (setting [4]) and in experiment [2] (setting [5]) were 1960 nM and 1790 nM, respectively.
